These results are taken from PubChem BioAssay AID1259407 (Chemical Carcinogenesis Research Information System (CCRIS), 2018).

This data set has as its system CCRIS mutagenicity, Ames/micronucleus/aberration tests. Kind of data set: CCRIS mutagenicity studies.
Where [1] appears, read: Test System: AMES SALMONELLA TYPHIMURIUM, Strain/Indicator: TA98, Metabolic Activation: NONE, Method: PREINCUBATION
Setting [2] is: Test System: AMES SALMONELLA TYPHIMURIUM, Strain/Indicator: TA1535, Metabolic Activation: NONE, Method: PREINCUBATION
Setting [3] is: Test System: AMES SALMONELLA TYPHIMURIUM, Strain/Indicator: TA1537, Metabolic Activation: NONE, Method: PREINCUBATION
Setting [4] is: Test System: AMES SALMONELLA TYPHIMURIUM, Strain/Indicator: TA98, Metabolic Activation: NONE, Method: STANDARD PLATE.
Where [5] appears, read: Test System: AMES SALMONELLA TYPHIMURIUM, Strain/Indicator: TA100, Metabolic Activation: NONE, Method: STANDARD PLATE.

Active and inactive are the calls of the source. No rule for the calls is given here.

For `CCCCCCCCCCCCCO`, the mutagenic call under setting [1] was “inactive; negative”; the mutagenic call (Test System: AMES SALMONELLA TYPHIMURIUM, Strain/Indicator: TA98, Metabolic Activation: RAT LIVER S-9, PHENOBARBITAL AND BETA-NAPHTHOFLAVONE, Method: PREINCUBATION) was “inactive; negative”; the mutagenic call (Test System: AMES SALMONELLA TYPHIMURIUM, Strain/Indicator: TA100, Metabolic Activation: NONE, Method: PREINCUBATION) is “inactive; negative”; the mutagenic call (Test System: AMES SALMONELLA TYPHIMURIUM, Strain/Indicator: TA100, Metabolic Activation: RAT LIVER S-9, PHENOBARBITAL AND BETA-NAPHTHOFLAVONE, Method: PREINCUBATION) was “inactive; negative”; the mutagenic call under setting [2] is “inactive; negative”; the mutagenic call (Test System: AMES SALMONELLA TYPHIMURIUM, Strain/Indicator: TA1535, Metabolic Activation: RAT LIVER S-9, PHENOBARBITAL AND BETA-NAPHTHOFLAVONE, Method: PREINCUBATION) is “inactive; negative”. Besides, the mutagenic call is “inactive; negative” under setting [3]; “inactive; negative” (Test System: AMES SALMONELLA TYPHIMURIUM, Strain/Indicator: TA1537, Metabolic Activation: RAT LIVER S-9, PHENOBARBITAL AND BETA-NAPHTHOFLAVONE, Method: PREINCUBATION); “inactive; negative” (Test System: E.COLI, Strain/Indicator: WP2UVRA/PKM101, Metabolic Activation: NONE, Method: PREINCUBATION); “inactive; negative” (Test System: E.COLI, Strain/Indicator: WP2UVRA/PKM101, Metabolic Activation: RAT LIVER S-9, PHENOBARBITAL AND BETA-NAPHTHOFLAVONE, Method: PREINCUBATION).
On to `OC(O)C(Cl)(Cl)Cl`, for which the mutagenic call by setting is: (End Point: IN VITRO MICRONUCLEUS, Test System: HAMSTER V79 CELLS, Metabolic Activation: NONE) “active; positive”; (End Point: IN VIVO MICRONUCLEUS, Test System: BLOOD LYMPHOCYTES, Species: HUMAN, Strain/Sex: INFANTS/MALE, FEMALE, Route: ORAL) “active; positive”; (Test System: AMES SALMONELLA TYPHIMURIUM, Strain/Indicator: TA98, Metabolic Activation: HAMSTER LIVER S-9 (10%), AROCLOR 1254, Method: PREINCUBATION) “inactive; negative”; under setting [1], “inactive; negative”; under setting [4], “inactive; negative”; (Test System: AMES SALMONELLA TYPHIMURIUM, Strain/Indicator: TA98, Metabolic Activation: RAT LIVER S-9 (10%), AROCLOR 1254, Method: PREINCUBATION) “inactive; negative”. Further, the mutagenic call reads like this: (Test System: AMES SALMONELLA TYPHIMURIUM, Strain/Indicator: TA98, Metabolic Activation: RAT, LIVER, S-9, AROCLOR 1254, Method: STANDARD PLATE) “inactive; negative”; (Test System: AMES SALMONELLA TYPHIMURIUM, Strain/Indicator: TA98, Metabolic Activation: RAT, LIVER, S-9, PHENOBARBITAL AND 5,6-BENZOFLAVONE, Method: PREINCUBATION) “inactive; negative”; (Test System: AMES SALMONELLA TYPHIMURIUM, Strain/Indicator: TA100, Metabolic Activation: HAMSTER LIVER S-9 (10%), AROCLOR 1254, Method: PREINCUBATION) “active; positive”; (Test System: AMES SALMONELLA TYPHIMURIUM, Strain/Indicator: TA100, Metabolic Activation: NONE, Method: FLUCTUATION TEST) “inactive; negative”; under setting [5], “inactive; negative”; (Test System: AMES SALMONELLA TYPHIMURIUM, Strain/Indicator: TA100, Metabolic Activation: RAT LIVER S-9 (10%), AROCLOR 1254, Method: PREINCUBATION) “active; positive”. For the same compound, the mutagenic call was “active; positive” (Test System: AMES SALMONELLA TYPHIMURIUM, Strain/Indicator: TA100, Metabolic Activation: RAT, LIVER, S-9, AROCLOR 1254, Method: FLUCTUATION TEST); “inactive; negative” (Test System: AMES SALMONELLA TYPHIMURIUM, Strain/Indicator: TA100, Metabolic Activation: RAT, LIVER, S-9, AROCLOR 1254, Method: STANDARD PLATE); “inactive; negative” (Test System: AMES SALMONELLA TYPHIMURIUM, Strain/Indicator: TA100, Metabolic Activation: RAT, LIVER, S-9, PHENOBARBITAL AND 5,6-BENZOFLAVONE, Method: PREINCUBATION); “inactive; negative” (Test System: AMES SALMONELLA TYPHIMURIUM, Strain/Indicator: TA1535, Metabolic Activation: HAMSTER LIVER S-9 (10%), AROCLOR 1254, Method: PREINCUBATION); “inactive; negative” under setting [2]; “inactive; negative” (Test System: AMES SALMONELLA TYPHIMURIUM, Strain/Indicator: TA1535, Metabolic Activation: NONE, Method: STANDARD PLATE). Moreover, the mutagenic call was “inactive; negative” (Test System: AMES SALMONELLA TYPHIMURIUM, Strain/Indicator: TA1535, Metabolic Activation: RAT LIVER S-9 (10%), AROCLOR 1254, Method: PREINCUBATION); “inactive; negative” (Test System: AMES SALMONELLA TYPHIMURIUM, Strain/Indicator: TA1535, Metabolic Activation: RAT, LIVER, S-9, AROCLOR 1254, Method: STANDARD PLATE); “inactive; negative” (Test System: AMES SALMONELLA TYPHIMURIUM, Strain/Indicator: TA1537, Metabolic Activation: HAMSTER LIVER S-9 (10%), AROCLOR 1254, Method: PREINCUBATION); “inactive; negative” under setting [3]; “inactive; negative” (Test System: AMES SALMONELLA TYPHIMURIUM, Strain/Indicator: TA1537, Metabolic Activation: NONE, Method: STANDARD PLATE); “inactive; negative” (Test System: AMES SALMONELLA TYPHIMURIUM, Strain/Indicator: TA1537, Metabolic Activation: RAT LIVER S-9 (10%), AROCLOR 1254, Method: PREINCUBATION). Further, the mutagenic call (Test System: AMES SALMONELLA TYPHIMURIUM, Strain/Indicator: TA1537, Metabolic Activation: RAT, LIVER, S-9, AROCLOR 1254, Method: STANDARD PLATE) is “inactive; negative”; the mutagenic call (Test System: AMES SALMONELLA TYPHIMURIUM, Strain/Indicator: TA1538, Metabolic Activation: NONE, Method: STANDARD PLATE) was “inactive; negative”; the mutagenic call (Test System: AMES SALMONELLA TYPHIMURIUM, Strain/Indicator: TA1538, Metabolic Activation: RAT, LIVER, S-9, AROCLOR 1254, Method: STANDARD PLATE) was “inactive; negative”; the mutagenic call (Test System: MOUSE LYMPHOMA, Strain/Indicator: L5178Y (TK+/TK- -3.7.2C), Metabolic Activation: NONE) was “active; positive”.
As for `OC1c2ccc3nc4c(ccc5ccccc54)cc3c2C2OC2C1O` (centres undefined), the mutagenic call is “inactive; negative” (Test System: AMES SALMONELLA TYPHIMURIUM, Strain/Indicator: TA98, Metabolic Activation: RAT, LIVER, AROCLOR 1254, NADPH GENERATING SYSTEM, Method: STANDARD PLATE); “inactive; negative” (Test System: AMES SALMONELLA TYPHIMURIUM, Strain/Indicator: TA100, Metabolic Activation: RAT, LIVER, AROCLOR 1254, NADPH GENERATING SYSTEM, Method: STANDARD PLATE); “inactive; negative” (Test System: CHINESE HAMSTER V-79, Strain/Indicator: V-79/8-AZAGUANINE, Method: STANDARD PLATE).
For the compound `Nc1ccc(-c2ccc(N)c([N+](=O)[O-])c2)cc1[N+](=O)[O-]`, the mutagenic call is, setting by setting: (Test System: AMES SALMONELLA TYPHIMURIUM, Strain/Indicator: TA98(1,8-DNP6), Metabolic Activation: NONE, Method: STANDARD PLATE) “inactive; negative”; (Test System: AMES SALMONELLA TYPHIMURIUM, Strain/Indicator: TA98(1,8-DNP6), Metabolic Activation: S-9, Method: STANDARD PLATE) “active; positive”; under setting [4], “active; positive”; (Test System: AMES SALMONELLA TYPHIMURIUM, Strain/Indicator: TA98, Metabolic Activation: S-9, Method: STANDARD PLATE) “active; positive”; under setting [5], “inactive; negative”; (Test System: AMES SALMONELLA TYPHIMURIUM, Strain/Indicator: TA100, Metabolic Activation: S-9, Method: STANDARD PLATE) “active; positive”.
Consider `COc1cc(OC)c2nc3occc3c(OC)c2c1`, for which the mutagenic call (Test System: AMES SALMONELLA TYPHIMURIUM, Strain/Indicator: TA98, Metabolic Activation: RAT, LIVER, S-9, PHENOBARBITAL, Method: STANDARD PLATE) was “active; positive” and the mutagenic call (Test System: AMES SALMONELLA TYPHIMURIUM, Strain/Indicator: TA100, Metabolic Activation: RAT, LIVER, S-9, PHENOBARBITAL, Method: STANDARD PLATE) was “active; positive”.
